Results as given in paper PMC4255673 (Analytical Chemistry, 2014).
Entries after “also recorded” stand apart in the source; their conditions may differ. Bridges are numbered along the chain shown (N, C = ends).

How the values were obtained:
[1] = molecular target: KDM4C; test: In vitro TR-FRET demethylase assay / KDM4C inhibition; format: biochemical; conditions: nonbinding control peptide; assay not described
[2] = system: KDM4C; test: HDX-MS of KDM4C ± peptide; format: binding
[3] = molecular target: KDM4C; conditions: cited from earlier work; for inhibition constants: TR-FRET demethylase assay; for apparent increase in activity of second generation peptides over initial leads: vs initial peptide leads
[4] = system: KDM4C; conditions: cell-based assay; cited from earlier work

KDM4C inhibition (control peptide) [1] | Substance | isotopic distribution / EX1 kinetics in site D (331–344) ([2]; KDM4C 331–344, HDX time course, bimodal fit with HX-Express, peptide 160 μM) | HDX of helix 359–370 ([2]; KDM4C 359–370, Figure S1 / data not shown) | inhibition constants [3] | apparent increase in activity of second generation peptides over initial leads [3] [fold] | inhibitory activity in cells [4]
noninhibitory | H-ACKWMDDGYCGGG-NH2 (disulfide 2-10 (inferred)) [Peptide 4] | – | – | – | – | –
– | H-ACYTRNMNQC-NH2 (also: sidechain bridge or staple (positions not given here)) [Peptide 2] | confirmed the occurrence of EX1 kinetics | the perturbation in HDX along site 359–370 was only significant after 10 min; also recorded: Helix 359–370 shows reduced HDX (significant only after 10 min; see Figure S1, Supporting Information) but no EX1 exchange kinetics | in the high μM range | 10 | none of the peptides showed any inhibitory activity
– | H-CKWMADGYC-NH2 (disulfide 1-9 (inferred)) [Peptide 3] | – | – | in the high μM range | 10 | none of the peptides showed any inhibitory activity
